Assay results from patent EP0433662A2, “Acat inhibitors” (WARNER-LAMBERT COMPANY, priority 1989, dated 1991).

Assays:
[1] = molecular target: acyl-CoA: cholesterol acyltransferase (ACAT); assay: In vitro ACAT inhibition: radiolabeled cholesterol oleate formed from radiolabeled oleic acid in rabbit intestinal microsomes; type: biochemical; details: tissue preparation containing rabbit intestinal microsomes; concentration required to inhibit the activity of the enzyme by 50%
Protocol: The ability of representative compounds of the present invention to inhibit ACAT was measured using an in vitro test more fully described in F. J. Field and R. G. Salone, Biochemica et Biophysica 712:557-570 (1982). The test assesses the ability of a test compound to inhibit the acylation of cholesterol by oleic acid by measuring the amount of radiolabeled cholesterol oleate formed from radiolabeled oleic acid in a tissue preparation containing rabbit intestinal microsomes.
The data appear in Table 1 where they are expressed as ICso values; i.e., the concentration of test compound required to inhibit the activity of the enzyme by 50%.

male Sprague-Dawley rats = assay: In vivo screen APCC: blood cholesterol in rats fed PCC diet overnight; details: blood cholesterol versus vehicle (CMC/Tween); dosed at 4 PM, PCC diet with 1 % or 0.5% cholic acid overnight, sacrificed at 8 AM; dose not given
Description: In one in vivo screen designated APCC, male Sprague-Dawley rats (200 to 225 g) were randomly divided into treatment groups and dosed at 4 PM with either vehicle (CMC/Tween) or suspensions of compounds in vehicle. The normal chow diet was then replaced with the PCC diet with either 1 % or 0.5% cholic acid, as indicated. The rats consumed this diet ad libitum during the night and were sacrificed at 8 AM to obtain blood samples for cholesterol analysis using standard procedures. Statistical differences between mean cholesterol values for the same vehicle were determined using analysis of variance followed by Fisher's least significant test.

Row | SMILES | IC50 [1] [nM] | % Change (mg/dl) (male Sprague-Dawley rats)
1 | CC(C)c1cccc(C(C)C)c1NC(=O)CC(=O)N(Cc1ccccc1)Cc1ccccc1 [N'-[2,6-bis(1-methylethyl)-phenyl]-N,N-bis(phenylmethyl)-propanediamide] | 13 | -42%
2 | CC(C)c1cccc(C(C)C)c1NC(=O)CC(=O)N(C(C)C)C(c1ccccc1)c1ccccc1 [N'-[2,6-bis(1-methylethyl)-phenyl]-N-(diphenylmethyl)-N-(1-methylethyl)propanediamide] | 20 | -41%
3 | CC(C)c1cccc(C(C)C)c1NC(=O)CC(=O)NCC(c1ccccc1)c1ccccc1 [N-[2,6-Bis(1-methylethyl)phenyl]-N'-(2,2-diphenylethyl)propanediamide] | 770 | –
4 | CC(C)c1cccc(C(C)C)c1NC(=O)CC(=O)NC(c1ccccc1)c1ccccc1 [N-[2,6-bis(1-methylethyl)-phenyl-N'-(diphenylmethyl)-propanediamide] | 490 | -20%
5 | CC(C)c1cccc(C(C)C)c1NC(=O)CC(=O)NCC1(c2ccccc2)CCCC1 [N-[2,6-bis(1-methylethyl)-phenyl]-N'-(1-phenylcyclo-pentyl)methylpropanediamide] | 990 | +7%
